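48-hour exposure; five concentrations; linearly interpolated endpoints. Abbreviation: GI50, concentration required for 50% inhibition of growth. TGI marks complete inhibition of growth.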
Tests used:
Experiment in all cases: inhibition of tumour cell growth, NCI panel, 48 h
786-0 renal = system: 786-0 renal
A498 renal = system: A498 renal
A549 NSCLC = system: A549 NSCLC
ACHN renal = system: ACHN renal
BT-549 breast = system: BT-549 breast
CAKI-1 renal = system: CAKI-1 renal
CCRF-CEM leukemia = system: CCRF-CEM leukemia
COLO 205 colon = system: COLO 205 colon
DU-145 prostate = system: DU-145 prostate
EKVX NSCLC = system: EKVX NSCLC
HCC-2998 colon = system: HCC-2998 colon
HCT-116 colon = system: HCT-116 colon
HCT-15 colon = system: HCT-15 colon
HL-60(TB) leukemia = system: HL-60(TB) leukemia
HOP-62 NSCLC = system: HOP-62 NSCLC
HOP-92 NSCLC = system: HOP-92 NSCLC
HS 578T breast = system: HS 578T breast
HT29 colon = system: HT29 colon
IGROV1 ovarian = system: IGROV1 ovarian
K-562 leukemia = system: K-562 leukemia
KM12 colon = system: KM12 colon
LOX IMVI melanoma = system: LOX IMVI melanoma
M14 melanoma = system: M14 melanoma
MALME-3M melanoma = system: MALME-3M melanoma
MCF7 breast = system: MCF7 breast
MDA-MB-231 breast = system: MDA-MB-231 breast
MDA-MB-435 = system: MDA-MB-435
MOLT-4 leukemia = system: MOLT-4 leukemia
NCI-H226 lung = system: NCI-H226 lung
NCI-H23 lung = system: NCI-H23 lung
NCI-H460 lung = system: NCI-H460 lung
NCI-H522 lung = system: NCI-H522 lung
NCI/ADR-RES ovarian = system: NCI/ADR-RES ovarian
OVCAR-3 ovarian = system: OVCAR-3 ovarian
OVCAR-4 ovarian = system: OVCAR-4 ovarian
OVCAR-5 ovarian = system: OVCAR-5 ovarian
OVCAR-8 ovarian = system: OVCAR-8 ovarian
PC-3 prostate = system: PC-3 prostate
RPMI-8226 leukemia = system: RPMI-8226 leukemia
RXF 393 renal = system: RXF 393 renal
SF-268 CNS = system: SF-268 CNS
SF-295 CNS = system: SF-295 CNS
SF-539 CNS = system: SF-539 CNS
SK-MEL-2 melanoma = system: SK-MEL-2 melanoma
SK-MEL-28 melanoma = system: SK-MEL-28 melanoma
SK-MEL-5 melanoma = system: SK-MEL-5 melanoma
SK-OV-3 ovarian = system: SK-OV-3 ovarian
SN12C renal = system: SN12C renal
SNB-19 CNS = system: SNB-19 CNS
SNB-75 CNS = system: SNB-75 CNS
SR leukemia = system: SR leukemia
SW-620 colon = system: SW-620 colon
T-47D breast = system: T-47D breast
TK-10 renal = system: TK-10 renal
U251 CNS = system: U251 CNS
UACC-257 melanoma = system: UACC-257 melanoma
UACC-62 melanoma = system: UACC-62 melanoma
UO-31 renal = system: UO-31 renal

For `Fc1ccc(-c2nnc3sc(-c4cc(Cl)cc(Cl)c4)nn23)cc1Cl`, the GI50 (786-0 renal) was 29.7 µM, the TGI (786-0 renal) was > 100 µM and the GI50 (A498 renal) was 29 µM. It also gave a TGI (A498 renal) of 77.9 µM, a GI50 (A549 NSCLC) of 24.4 µM and a TGI (A549 NSCLC) of 61.8 µM. For the same compound, the GI50 (ACHN renal) was 21 µM, the TGI (ACHN renal) was 45.6 µM and the GI50 (BT-549 breast) was 87.1 µM. The TGI (BT-549 breast) was > 100 µM, the GI50 (CAKI-1 renal) was 33.5 µM and the TGI (CAKI-1 renal) was 96.4 µM. For the same compound, the GI50 (CCRF-CEM leukemia) was 29 µM, the TGI (CCRF-CEM leukemia) was 86.8 µM and the GI50 (COLO 205 colon) was 56.6 µM. For the same compound, the TGI (COLO 205 colon) was > 100 µM, the GI50 (DU-145 prostate) was > 100 µM and the TGI (DU-145 prostate) was > 100 µM. For the same compound, the GI50 (EKVX NSCLC) was > 100 µM, the TGI (EKVX NSCLC) was > 100 µM and the GI50 (HCC-2998 colon) was > 100 µM. For the same compound, the TGI (HCC-2998 colon) was > 100 µM, the GI50 (HCT-116 colon) was 18.5 µM and the TGI (HCT-116 colon) was 44.2 µM. The GI50 (HCT-15 colon) was 72.5 µM, the TGI (HCT-15 colon) was > 100 µM and the GI50 (HL-60(TB) leukemia) was 99.1 µM. For the same compound, the TGI (HL-60(TB) leukemia) was > 100 µM, the GI50 (HOP-62 NSCLC) was 20.3 µM and the TGI (HOP-62 NSCLC) was 42 µM. The GI50 (HOP-92 NSCLC) was 20.5 µM, the TGI (HOP-92 NSCLC) was 52.4 µM and the GI50 (HS 578T breast) was 45.2 µM. For the same compound, the TGI (HS 578T breast) was > 100 µM, the GI50 (HT29 colon) was 28.1 µM and the TGI (HT29 colon) was 83.3 µM. For the same compound, the GI50 (IGROV1 ovarian) was > 100 µM, the TGI (IGROV1 ovarian) was > 100 µM and the GI50 (K-562 leukemia) was > 100 µM. The TGI (K-562 leukemia) was > 100 µM, the GI50 (KM12 colon) was > 100 µM and the TGI (KM12 colon) was > 100 µM. The GI50 (LOX IMVI melanoma) was 32.8 µM, the TGI (LOX IMVI melanoma) was > 100 µM and the GI50 (M14 melanoma) was 41.3 µM. The TGI (M14 melanoma) was > 100 µM, the GI50 (MALME-3M melanoma) was 37.7 µM and the TGI (MALME-3M melanoma) was > 100 µM. For the same compound, the GI50 (MCF7 breast) was 30.5 µM, the TGI (MCF7 breast) was > 100 µM and the GI50 (MDA-MB-231 breast) was 17.2 µM. The TGI (MDA-MB-231 breast) was 39.4 µM, the GI50 (MDA-MB-435) was > 100 µM and the TGI (MDA-MB-435) was > 100 µM. For the same compound, the GI50 (MOLT-4 leukemia) was 72.9 µM, the TGI (MOLT-4 leukemia) was > 100 µM and the GI50 (NCI-H226 lung) was 34.3 µM. The TGI (NCI-H226 lung) was > 100 µM, the GI50 (NCI-H23 lung) was 37.2 µM and the TGI (NCI-H23 lung) was > 100 µM. The GI50 (NCI-H460 lung) was 39.3 µM, the TGI (NCI-H460 lung) was > 100 µM and the GI50 (NCI-H522 lung) was 49.7 µM. For the same compound, the TGI (NCI-H522 lung) was > 100 µM, the GI50 (NCI/ADR-RES ovarian) was 34.9 µM and the TGI (NCI/ADR-RES ovarian) was > 100 µM. For the same compound, the GI50 (OVCAR-3 ovarian) was > 100 µM, the TGI (OVCAR-3 ovarian) was > 100 µM and the GI50 (OVCAR-4 ovarian) was 17.4 µM. The TGI (OVCAR-4 ovarian) was 53.4 µM, the GI50 (OVCAR-5 ovarian) was 70.1 µM and the TGI (OVCAR-5 ovarian) was > 100 µM. The GI50 (OVCAR-8 ovarian) was 46.6 µM, the TGI (OVCAR-8 ovarian) was > 100 µM and the GI50 (PC-3 prostate) was 61.3 µM. The TGI (PC-3 prostate) was > 100 µM, the GI50 (RPMI-8226 leukemia) was 46.8 µM and the TGI (RPMI-8226 leukemia) was > 100 µM. The GI50 (RXF 393 renal) was 1.51 µM, the TGI (RXF 393 renal) was 26.4 µM and the GI50 (SF-268 CNS) was 53 µM. The TGI (SF-268 CNS) was > 100 µM, the GI50 (SF-295 CNS) was 74.2 µM and the TGI (SF-295 CNS) was > 100 µM. For the same compound, the GI50 (SF-539 CNS) was > 100 µM, the TGI (SF-539 CNS) was > 100 µM and the GI50 (SK-MEL-2 melanoma) was > 100 µM. For the same compound, the TGI (SK-MEL-2 melanoma) was > 100 µM, the GI50 (SK-MEL-28 melanoma) was > 100 µM and the TGI (SK-MEL-28 melanoma) was > 100 µM. The GI50 (SK-MEL-5 melanoma) was > 100 µM, the TGI (SK-MEL-5 melanoma) was > 100 µM and the GI50 (SK-OV-3 ovarian) was 24.6 µM. The TGI (SK-OV-3 ovarian) was 46.3 µM, the GI50 (SN12C renal) was 34.2 µM and the TGI (SN12C renal) was > 100 µM. For the same compound, the GI50 (SNB-19 CNS) was 32.3 µM, the TGI (SNB-19 CNS) was > 100 µM and the GI50 (SNB-75 CNS) was 13 µM. It also gave a TGI (SNB-75 CNS) of 30.1 µM, a GI50 (SR leukemia) of 13.3 µM and a TGI (SR leukemia) of 43.8 µM. The GI50 (SW-620 colon) was 45 µM, the TGI (SW-620 colon) was > 100 µM and the GI50 (T-47D breast) was > 100 µM. The TGI (T-47D breast) was > 100 µM, the GI50 (TK-10 renal) was 20.5 µM and the TGI (TK-10 renal) was 44 µM. It also gave a GI50 (U251 CNS) of 17.3 µM, a TGI (U251 CNS) of 43.6 µM and a GI50 (UACC-257 melanoma) of 38.2 µM. The TGI (UACC-257 melanoma) was > 100 µM, the GI50 (UACC-62 melanoma) was 31.1 µM and the TGI (UACC-62 melanoma) was > 100 µM. For the same compound, the GI50 (UO-31 renal) was 39.6 µM and the TGI (UO-31 renal) was > 100 µM.
